{"source": "patent EP4813999A1", "about": "“NOVEL PEPTIDE DERIVATIVE AND PHARMACEUTICAL COMPOSITION FOR PREVENTING OR TREATING MACULAR DEGENERATION COMPRISING SAME” (Supadelixir Inc., priority 2023, dated 2026)", "key": {"HUVECs": {"test_system": "HUVECs", "test": "VEGF-induced tube formation on Matrigel", "format": "cell-based, human", "settings": "VEGF 10 ng/ml, test substance 0.1, 1, 10, 100 nM, 24 hours", "method": "The anti-angiogenic activity of the test substance (SE101B2L) was evaluated using HUVECs. HUVECs were cultured in CEFOgro-HUVEC basal medium (CEFO Co., Ltd.) supplemented with growth supplements containing vascular endothelial cell growth-related factors and serum (HUVEC supplements, CEFO Co., Ltd.), which was used as vascular endothelial cell growth medium (hereinafter denoted as \"growth medium\").\nThe experiment was conducted by dividing the groups into an untreated group, a group treated with VEGF alone, and a group co-treated with VEGF and the test substance (SE101B2L).\nFirst, tube formation ability was confirmed to determine whether the test substance inhibited VEGF-induced angiogenesis. HUVECs were seeded into a Matrigel-coated 48-well plate at 5 × 10^4 cells per well together with 0.5 ml of growth medium. VEGF was added to each VEGF-treated group to a final concentration of 10 ng/ml, while the test substance was added to each test substance-treated group to final concentrations of 0.1, 1, 10, and 100 nM. The test plate was incubated in an incubator with 5% CO2 at 37°C for 24 hours. After 24 hours, the degree of tube formation was observed under a microscope and photographed. The total tube length in each image was measured using the ImageJ program. The results were converted to values relative to the tube length for the untreated group."}, "VE-cadherin and ZO-1": {"test_system": "VE-cadherin and ZO-1", "test": "Expression levels and patterns of junctional proteins (immunofluorescence)", "format": "cell-based, human", "settings": "HUVECs; VEGF 50 ng/mL, 90 minutes; test substance 10 and 100 nM", "excerpt": "Whether the test substance (SE101B2L) could regulate changes in permeability caused by VEGF-induced changes in membrane protein stability of vascular endothelial cells was confirmed. Expression levels and patterns of VE-cadherin and ZO-1, which are junctional proteins associated with vascular stability and permeability and connect cells to one another, were confirmed. One circular coverslip having a diameter of 12 mm was placed in each well of a 24-well plate, and gelatin was applied using a 2% gelatin solution to facilitate cell attachment. Into the prepared wells, 1 × 10^5 HUVECs were seeded per well. The cells were cultured in an incubator with 5% CO2 at 37°C for 4 days, with the growth medium replaced every other day. After confirming that the cells had become completely confluent, the cells were incubated for 1 hour using serum-free CEFOgro-HUVEC medium. At this time, the test substance was added to the corresponding wells to final concentrations of 10 and 100 nM. Upon completion of the incubation, VEGF at a final concentration of 50 ng/mL was added, followed by incubation for an additional 90 minutes. The incubated samples were fixed at room temperature for 15 minutes using a 10% formalin solution. […] The corresponding samples were photographed under a fluorescence microscope."}}, "data": [{"substance": "decylbenzoyl-Cys-Phe-Lys-amide [SE101B2L]", "values": [{"measurement": "tube formation ability (total tube length)", "setting": "HUVECs", "result": "reduced by the test substance in a concentration-dependent manner"}, {"measurement": "expression levels and patterns of junctional proteins between cells (VE-cadherin, ZO-1)", "setting": "VE-cadherin and ZO-1", "result": "appear similarly to those of the untreated group in a concentration-dependent manner"}]}]}
